From patent US20220251163A1 (Sinopep-Allsino Biopharmaceutical Co., Ltd., priority 2019, published 2022)
Read-outs that look alike come from different tables or passages of the source. Where a SMILES comes first, the peptide text is derived from it.

Columns and labels:
mGLP-1R = target: T1, mGLP-1R (Mus musculus, UniProt O35659); assay: GLP-1R agonist activity, cAMP in transfected HEK293 cells; type: cell-based
T1 construct: expressed in transfected cells; host or cells: HEK293
T1 sequence (O35659 22-463): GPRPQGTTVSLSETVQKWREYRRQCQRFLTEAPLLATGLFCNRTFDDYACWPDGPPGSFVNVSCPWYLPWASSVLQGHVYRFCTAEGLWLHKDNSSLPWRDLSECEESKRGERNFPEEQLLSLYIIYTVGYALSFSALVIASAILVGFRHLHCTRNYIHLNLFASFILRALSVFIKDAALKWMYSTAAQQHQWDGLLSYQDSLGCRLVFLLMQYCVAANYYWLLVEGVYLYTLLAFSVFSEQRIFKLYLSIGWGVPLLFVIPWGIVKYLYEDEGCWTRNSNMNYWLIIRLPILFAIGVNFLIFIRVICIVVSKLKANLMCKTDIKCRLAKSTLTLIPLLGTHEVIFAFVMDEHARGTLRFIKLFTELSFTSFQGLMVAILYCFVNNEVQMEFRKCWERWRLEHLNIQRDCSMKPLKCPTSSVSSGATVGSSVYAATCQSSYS

mGIPR = target: T2, mGIPR (Mus musculus, UniProt Q0P543); assay: GIPR agonist activity, cAMP in transfected HEK293 cells; type: cell-based
T2 construct: expressed in transfected cells; host or cells: HEK293
T2 sequence (Q0P543 19-460): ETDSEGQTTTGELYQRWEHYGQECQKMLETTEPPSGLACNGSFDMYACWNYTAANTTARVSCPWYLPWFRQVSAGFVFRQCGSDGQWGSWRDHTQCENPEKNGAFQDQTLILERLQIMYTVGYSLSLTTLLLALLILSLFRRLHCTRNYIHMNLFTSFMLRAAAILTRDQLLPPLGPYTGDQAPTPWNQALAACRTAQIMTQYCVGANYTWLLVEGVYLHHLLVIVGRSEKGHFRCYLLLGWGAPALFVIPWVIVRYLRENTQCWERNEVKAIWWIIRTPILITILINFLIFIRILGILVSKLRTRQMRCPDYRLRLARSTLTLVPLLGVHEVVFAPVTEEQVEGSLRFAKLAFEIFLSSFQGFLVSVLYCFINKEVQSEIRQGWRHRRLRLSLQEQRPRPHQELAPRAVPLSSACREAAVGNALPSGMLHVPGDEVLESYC

[1] = HEK293 cells transfected with GLP-1R, cAMP, 20 min incubation, read-out: mGLP-1R EC50
[2] = HEK293 cells transfected with GIPR, cAMP, 20 min incubation, read-out: mGIPR EC50

Question: What does the source list for CCCCCCCCCCCCCCCC(=O)N[C@@H](CCC(=O)NCCCC[C@H](NC(=O)[C@H](CCC(N)=O)NC(=O)[C@H](C)NC(=O)[C@@H](NC(=O)[C@H](CCCCN)NC(=O)[C@H](CC(=O)O)NC(=O)[C@H](CC(C)C)NC(=O)C(C)(C)NC(=O)[C@@H](NC(=O)[C@H](CO)NC(=O)[C@H](Cc1ccc(O)cc1)NC(=O)[C@H](CC(=O)O)NC(=O)[C@H](CO)NC(=O)[C@@H](NC(=O)[C@H](Cc1ccccc1)NC(=O)[C@@H](NC(=O)CNC(=O)[C@H](CCC(=O)O)NC(=O)C1(NC(=O)[C@@H](N)Cc2ccc(O)cc2)CCC1)[C@@H](C)O)[C@@H](C)O)[C@@H](C)CC)[C@@H](C)CC)C(=O)N[C@@H](C)C(=O)N[C@@H](Cc1ccccc1)C(=O)N[C@H](C(=O)N[C@@H](CCC(N)=O)C(=O)N[C@@H](Cc1c[nH]c2ccccc12)C(=O)N[C@@H](CC(C)C)C(=O)N[C@H](C(=O)N[C@@H](C)C(=O)NCC(=O)NCC(=O)N1CCC[C@H]1C(=O)N[C@@H](CO)C(=O)N[C@@H](CO)C(=O)NCC(=O)N[C@@H](C)C(=O)N1CCC[C@H]1C(=O)N1CCC[C@H]1C(=O)N1CCC[C@H]1C(=O)N[C@@H](CO)C(N)=O)[C@@H](C)CC)C(C)C)C(=O)O [ID NO: 18]?
Answer: EC50 (mGLP-1R; [1]): 9.02 pM; EC50 (mGIPR; [2]): 8.33 pM

Question: CC[C@H](C)[C@H](NC(=O)[C@H](CC(C)C)NC(=O)[C@H](Cc1c[nH]c2ccccc12)NC(=O)[C@H](CCC(N)=O)NC(=O)[C@@H](NC(=O)[C@H](Cc1ccccc1)NC(=O)[C@H](C)NC(=O)[C@H](CCCCNC(=O)COCCOCCNC(=O)COCCOCCNC(=O)CC[C@H](NC(=O)CCCCCCCCCCCCCCCCC(=O)O)C(=O)O)NC(=O)[C@H](CCC(N)=O)NC(=O)[C@H](C)NC(=O)[C@@H](NC(=O)[C@H](CCCCN)NC(=O)[C@H](CC(=O)O)NC(=O)[C@H](CC(C)C)NC(=O)C(C)(C)NC(=O)[C@@H](NC(=O)[C@H](CO)NC(=O)[C@H](Cc1ccc(O)cc1)NC(=O)[C@H](CC(=O)O)NC(=O)[C@H](CO)NC(=O)[C@@H](NC(=O)[C@H](Cc1ccccc1)NC(=O)[C@@H](NC(=O)CNC(=O)[C@H](CCC(=O)O)NC(=O)C1(NC(=O)[C@@H](N)Cc2ccc(O)cc2)CCC1)[C@@H](C)O)[C@@H](C)O)[C@@H](C)CC)[C@@H](C)CC)C(C)C)C(=O)N[C@@H](C)C(=O)NCC(=O)NCC(=O)N1CCC[C@H]1C(=O)N[C@@H](CO)C(=O)N[C@@H](CO)C(=O)NCC(=O)N[C@@H](C)C(=O)N1CCC[C@H]1C(=O)N1CCC[C@H]1C(=O)N1CCC[C@H]1C(=O)N[C@@H](CO)C(N)=O [ID NO: 7] was tested. Which EC50 (mGLP-1R) did it give?
Answer: 5.49 pM

Question: What about the EC50 (mGIPR) of the same compound?
Answer: 7.66 pM

Question: What does the source list for CC[C@H](C)[C@H](NC(=O)[C@H](CC(C)C)NC(=O)[C@H](Cc1c[nH]c2ccccc12)NC(=O)[C@H](CCC(N)=O)NC(=O)[C@@H](NC(=O)[C@H](Cc1ccccc1)NC(=O)[C@H](C)NC(=O)[C@H](CCCCNC(=O)COCCOCCNC(=O)COCCOCCNC(=O)CC[C@H](NC(=O)CCCCCCCCCCCCCCCCC(=O)O)C(=O)O)NC(=O)[C@H](CCC(N)=O)NC(=O)[C@H](C)NC(=O)[C@@H](NC(=O)[C@H](CCCCN)NC(=O)[C@H](CC(=O)O)NC(=O)[C@H](CC(C)C)NC(=O)C1(NC(=O)[C@@H](NC(=O)[C@H](CO)NC(=O)[C@H](Cc2ccc(O)cc2)NC(=O)[C@H](CC(=O)O)NC(=O)[C@H](CO)NC(=O)[C@@H](NC(=O)[C@H](Cc2ccccc2)NC(=O)[C@@H](NC(=O)CNC(=O)[C@H](CCC(=O)O)NC(=O)C(C)(C)NC(=O)[C@@H](N)Cc2ccc(O)cc2)[C@@H](C)O)[C@@H](C)O)[C@@H](C)CC)CCCC1)[C@@H](C)CC)C(C)C)C(=O)N[C@@H](C)C(=O)NCC(=O)NCC(=O)N1CCC[C@H]1C(=O)N[C@@H](CO)C(=O)N[C@@H](CO)C(=O)NCC(=O)N[C@@H](C)C(=O)N1CCC[C@H]1C(=O)N1CCC[C@H]1C(=O)N1CCC[C@H]1C(=O)N[C@@H](CO)C(N)=O [ID NO: 10]?
Answer: EC50 (mGLP-1R; [1]): 8.89 pM; EC50 (mGIPR; [2]): 8.11 pM

Question: What does the source list for CCCCCCCCCCCCCCCC(=O)N[C@@H](CCC(=O)NCCCC[C@H](NC(=O)[C@H](CCC(N)=O)NC(=O)[C@H](C)NC(=O)[C@@H](NC(=O)[C@H](CCCCN)NC(=O)[C@H](CC(=O)O)NC(=O)[C@H](CC(C)C)NC(=O)C1(NC(=O)[C@@H](NC(=O)[C@H](CO)NC(=O)[C@H](Cc2ccc(O)cc2)NC(=O)[C@H](CC(=O)O)NC(=O)[C@H](CO)NC(=O)[C@@H](NC(=O)[C@H](Cc2ccccc2)NC(=O)[C@@H](NC(=O)CNC(=O)[C@H](CCC(=O)O)NC(=O)C(C)(C)NC(=O)[C@@H](N)Cc2ccc(O)cc2)[C@@H](C)O)[C@@H](C)O)[C@@H](C)CC)CCCC1)[C@@H](C)CC)C(=O)N[C@@H](C)C(=O)N[C@@H](Cc1ccccc1)C(=O)N[C@H](C(=O)N[C@@H](CCC(N)=O)C(=O)N[C@@H](Cc1c[nH]c2ccccc12)C(=O)N[C@@H](CC(C)C)C(=O)N[C@H](C(=O)N[C@@H](C)C(=O)NCC(=O)NCC(=O)N1CCC[C@H]1C(=O)N[C@@H](CO)C(=O)N[C@@H](CO)C(=O)NCC(=O)N[C@@H](C)C(=O)N1CCC[C@H]1C(=O)N1CCC[C@H]1C(=O)N1CCC[C@H]1C(=O)N[C@@H](CO)C(N)=O)[C@@H](C)CC)C(C)C)C(=O)O [ID NO: 21]?
Answer: EC50 (mGLP-1R; [1]): 17.8 pM; EC50 (mGIPR; [2]): 8.07 pM

Question: CCCCCCCCCCCCCCCC(=O)N[C@@H](CCC(=O)NCCCC[C@H](NC(=O)[C@H](CCC(N)=O)NC(=O)[C@H](C)NC(=O)[C@@H](NC(=O)[C@H](CCCCN)NC(=O)[C@H](CC(=O)O)NC(=O)[C@H](CC(C)C)NC(=O)[C@H](C)NC(=O)[C@@H](NC(=O)[C@H](CO)NC(=O)[C@H](Cc1ccc(O)cc1)NC(=O)[C@H](CC(=O)O)NC(=O)[C@H](CO)NC(=O)[C@@H](NC(=O)[C@H](Cc1ccccc1)NC(=O)[C@@H](NC(=O)CNC(=O)[C@H](CCC(=O)O)NC(=O)C(C)(C)NC(=O)[C@@H](N)Cc1ccc(O)cc1)[C@@H](C)O)[C@@H](C)O)[C@@H](C)CC)[C@@H](C)CC)C(=O)N[C@@H](C)C(=O)N[C@@H](Cc1ccccc1)C(=O)N[C@H](C(=O)N[C@@H](CCC(N)=O)C(=O)N[C@@H](Cc1c[nH]c2ccccc12)C(=O)N[C@@H](CC(C)C)C(=O)N[C@H](C(=O)N[C@@H](C)C(=O)NCC(=O)NCC(=O)N1CCC[C@H]1C(=O)N[C@@H](CO)C(=O)N[C@@H](CO)C(=O)NCC(=O)N[C@@H](C)C(=O)N1CCC[C@H]1C(=O)N1CCC[C@H]1C(=O)N1CCC[C@H]1C(=O)N[C@@H](CO)C(N)=O)[C@@H](C)CC)C(C)C)C(=O)O [ID NO: 17] (HELM PEPTIDE1{Y.[Aib].E.G.T.F.T.S.D.Y.S.I.A.L.D.K.I.A.Q.K.A.F.V.Q.W.L.I.A.G.G.P.S.S.G.A.P.P.P.S.[am]}|PEPTIDE2{[CCCCCCCCCCCCCCCC(=O)[*:2]].[gGlu]}$PEPTIDE1,PEPTIDE2,20:R3-2:R2$$$V2.0) was tested. Which EC50 (mGLP-1R; [1]) did it give?
Answer: 45.4 pM

Question: What about the EC50 (mGIPR; [2]) of the same compound?
Answer: 9.72 pM
